Paper PMC11220790 (Molecular Pharmaceutics, 2024)
Values after ≈ are worked out from the molar mass of the structure shown. Read-outs that look alike come from different tables or passages of the source.

What was measured:
[1] = Intrinsic dissolution, rotating disk apparatus; format: physicochemical; details: for IDR (intrinsic dissolution rate) pH 6.8: phosphate buffer pH 6.8, 37.0 ± 0.5 °C, 100 rpm
Method: Intrinsic dissolution tests were carried out in triplicate using a rotating disk dissolution apparatus. […] The attachments containing the disks were immersed into 500 mL of phosphate buffer, pH 6.8, medium preheated at 37.0 ± 0.5 °C with the metallic rod rotating at 100 rpm.

[2] = Solid-state stability under accelerated degradation conditions (40 °C, 75% RH)
[3] = Photostability in aqueous media (DTIC degradation / 2-AZA formation kinetics); format: physicochemical; details: for kg, photogeneration rate constant for 2-AZA: 5 mM solution, phosphate buffer pH 6.8, UV irradiation 5 h
Method: The mobile phase consisted of a mixture of 0.1% (v/v) aqueous formic acid solution (A) and acetonitrile (B), in a gradient elution mode (0.0–2.5 min: 0% B; 2.5–4.0 min: 0–6% B; 4.0–5.0 min: 6–0% B; and 5.0–7.0 min: 0% B), delivered at a flow rate of 0.8 mL min^–1. […] The method validation followed the ICH Q2 (R2) guideline.[31] The parameters selectivity, linearity, precision, accuracy, and limits of quantitation and detection were evaluated.
A triplicate of freshly prepared solutions at a concentration of 5 mM has been placed into clear glass vials and arranged at 30 cm from a black UV lamp (300 mm, 15 W) to be photoirradiated for 5 h.

[4] = Solid-state photodegradation test (black UV lamp chamber); details: for stability, % 2-AZA found / stability, % DTIC found: after 15 days in photostability chamber
[5] = Thermal analysis (DSC and TG); format: physicochemical
Method: Thermogravimetric (TG) experiments were performed on a Shimadzu DTG-60 thermobalance, placing approximately 2.0 ± 0.2 mg of each sample in alumina pans and then heating at 10 °C min^–1 under a nitrogen flow (50 mL min^–1) from 25 to 600 °C. Differential scanning calorimetry (DSC) curves were obtained using a Shimadzu DSC-60 instrument. The samples (1.0 ± 0.2 mg) were placed in aluminum pans and heated at a constant rate of 10 °C min^–1 under a nitrogen flow (50 mL min^–1). According to TG data, the DSC measurements have been conducted until the degradation temperature of each compound. Shimadzu TA-60 software was employed in the data analysis.

[6] = pKa and ΔpKa between DTIC and coformers; details: between DTIC and the coformer, Table S4
[7] = weak base; cited from earlier work
physchem = details: 37 °C, thermodynamic from solid
[8] = freshly prepared (initial) solid sample
[9] = solid, after 90 days at 40 °C and 75% RH

SMILES: CN(C)N=Nc1nc[nH]c1C(N)=O.CN(C)N=Nc1nc[nH]c1C(N)=O.O.O.O.O.O=C(O)CC(O)(CC(=O)O)C(=O)O [DTIC-HCIT, Dacarbazine Hydrogen-Citrate Salt-Cocrystal]
- IDR compared with DTIC (in words) ([1]; phosphate buffer pH 6.8): equivalent to those of DTIC
- IDR (intrinsic dissolution rate) pH 6.8 [1]: 0.35 ± 0.01 mg cm^–2 min^–1
- stability, % DTIC found [2, 8]: 99.8 ± 0.4%
- stability, % DTIC found [2, 9]: 96.0 ± 0.5%
- kg, photogeneration rate constant for 2-AZA [3]: 0.338 ± 0.03 mM h^–1
- stability, % 2-AZA found [4]: 1.8 ± 0.2%
- stability, % DTIC found [4]: 97.0 ± 0.4%

SMILES: CN(C)N=Nc1nc[nH]c1C(N)=O.O=C(O)/C=C/C(=O)O [DTIC-H2FUM, Dacarbazine-Fumaric Acid Cocrystal]
- increase of IDR compared to DTIC ([1]; phosphate buffer pH 6.8): ~5.1 fold
- IDR (intrinsic dissolution rate) pH 6.8 [1]: 1.31 ± 0.05 mg cm^–2 min^–1
- Tonset of DSC exothermic degradation peak [5]: 172.1 °C
- decomposition temperature (DSC exothermic degradation peak) [5]: 178.1 °C
- TG: thermally stable up to / mass loss begins at ([5]; 10 °C min^–1, nitrogen flow): around 163 °C
- Tonset of TG mass loss ([5]; 10 °C min^–1, nitrogen flow): 159.4 °C
- stability, % DTIC found [2, 8]: 99.5 ± 0.3%
- stability, % DTIC found [2, 9]: 99.2 ± 0.2%
- kg, photogeneration rate constant for 2-AZA [3]: 0.363 ± 0.02 mM h^–1
- stability, % 2-AZA found [4]: 1.1 ± 0.1%
- stability, % DTIC found [4]: 97.3 ± 0.2%

SMILES: CN(C)N=Nc1[nH]cnc1C(N)=O.O=C(O)C=CC(=O)O [DTIC-HMAL, Dacarbazine Hydrogen-Maleate Salt]
- increase of IDR compared to DTIC ([1]; phosphate buffer pH 6.8): approximately 7.3 fold
- IDR (intrinsic dissolution rate) pH 6.8 [1]: 1.90 ± 0.06 mg cm^–2 min^–1
- stability, % DTIC found [2, 8]: 99.6 ± 0.4%
- stability, % DTIC found [2, 9]: 98.2 ± 0.4%
- kg, photogeneration rate constant for 2-AZA [3]: 0.371 ± 0.02 mM h^–1
- stability, % 2-AZA found [4]: 1.7 ± 0.2%
- stability, % DTIC found [4]: 98.4 ± 0.2%

SMILES: O=C(O)/C=C\C(=O)O [Maleic acid]
- ΔpKa (pKa(base) − pKa(acid)) [6]: 2.5

SMILES: CN(C)/N=N/c1[nH]cnc1C(N)=O [DTIC, Dacarbazine, reference compound]
- IDR (intrinsic dissolution rate) pH 6.8 [1]: 0.26 ± 0.02 mg cm^–2 min^–1
- TG: thermally stable up to / mass loss begins at ([5]; 10 °C min^–1, nitrogen flow): 208 °C
- Tonset of DSC exothermic degradation peak ([5]; 10 °C min^–1, nitrogen flow): 210.8 °C
- Tonset of TG mass loss ([5]; 10 °C min^–1, nitrogen flow): 206.5 °C
- decomposition temperature (DSC exothermic degradation peak) ([5]; 10 °C min^–1, nitrogen flow): 215.5 °C
- stability, % DTIC found [2, 8]: 100.0 ± 0.2%
- stability, % DTIC found [2, 9]: 99.8 ± 0.3%
- kg, photogeneration rate constant for 2-AZA [3]: 0.361 ± 0.04 mM h^–1
- photodegradation in solution under UV radiation (in words) ([3]; low-pH and diluted solutions): Complete and rapid photodegradation
- reduction in the drug content during the photostability test ([4]; 15 days UV exposure): 5.6%
- stability, % DTIC found [4]: 94.4 ± 0.5%
- pKa [7]: 4.4
- solubility at 24 h (physchem; HCl solution, pH 1.2, simulated gastric fluid): 20.4 ± 0.2 mg/mL (≈ 112 mM)
- solubility at 24 h (physchem; acetate buffer, pH 4.5, aqueous buffer): 3.4 ± 0.2 mg/mL (≈ 18.7 mM)

SMILES: CN(C)N=Nc1[nH]cnc1C(N)=O.O=C(O)C(=O)O [DTIC-HOXA, Dacarbazine Hydrogen-Oxalate Salt]
- increase of IDR compared to DTIC ([1]; phosphate buffer pH 6.8): 22 fold
- IDR (intrinsic dissolution rate) pH 6.8 [1]: 5.58 ± 0.08 mg cm^–2 min^–1
- Tonset of DSC exothermic degradation peak [5]: 170.2 °C
- decomposition temperature (DSC exothermic degradation peak) [5]: 175.0 °C
- TG: thermally stable up to / mass loss begins at ([5]; 10 °C min^–1, nitrogen flow): around 166 °C
- Tonset of TG mass loss ([5]; 10 °C min^–1, nitrogen flow): 161.7 °C
- stability, % DTIC found [2, 8]: 100.1 ± 0.1%
- stability, % DTIC found [2, 9]: 99.9 ± 0.2%
- kg, photogeneration rate constant for 2-AZA [3]: 0.386 ± 0.03 mM h^–1
- stability, % 2-AZA found [4]: 2.2 ± 0.4%
- stability, % DTIC found [4]: 97.1 ± 0.3%

SMILES: O=C(O)/C=C/C(=O)O [Fumaric acid]
- ΔpKa (pKa(base) − pKa(acid)) [6]: 1.4
